Data from patent EP0925064B1, “5-ANDROSTENE 3 beta,17alpha DIOL AS AN INHIBITOR OF TUMOR GROWTH” (LORIA, Roger M., priority 1996, dated 1997).

Assays:
ZR-75-1 cells [1] = test: Cell proliferation assay (3H-thymidine incorporation, 6 days); type: cell-based, human; settings: for cell proliferation (Example 1): six day period
Description: The ZR-75-1 cell line (passage 89) was obtained from the American Type Culture Collection (Rockville, Maryland). The cells were cultured in RPMI-1640 medium containing 10% heat-inactivated fetal calf serum, 200 µM L-glutamine, […], 1.5 U/ml penicillin, and 1.5 µg/ml streptomycin in 5% CO2 at 37°C. The cells were passaged twice weekly.
(§1) Cells were first seeded at initial density of 1x10^5 cells per ml in quadruplicates in 24 multi-well flat bottom plates (Costar). Cells were then allowed to adhere and grow in phenol red-free […] media supplemented with 10 % heat-inactivated fetal calf serum (FCS), 200 µM L-glutamine, 10 mM HEPES, 2.5 U/ml penicillin and 2.5 µg/ml streptomycin in 5% CO2 at 37°C. After 48 hours, four wells were sacrificed and counted to determine plating efficiency. In the remaining wells, medium was removed by aspiration and cells in each well were exposed to the media containing the specified steroid. The controls containing only medium or medium with vehicle were also prepared. In all samples, medium was changed every 48 hours. At the pre-established time-point. Cells were removed by trypsinization and washed. Cell number and viability were determined by trypan blue exclusion using a hemocytometer. Parallel cultures were also run to determine cell proliferation.
(§2) For cell proliferation assays, cell suspensions were prepared by trypsinization of cells from cultures prepared in accord with methods described above. Cell viability was determined by trypan blue exclusion. The cells were then seeded in flat-bottom 96-well microtiter plates at a density of 2X10^3 cells/well and were allowed to rest for 48 hours in order to adhere. Non-adherent dead cells were removed by aspiration. Cells were then grown in media without phenol red. Some of the media contained supplements as indicated above. The active agents or vehicle control were added to the media. The cells were then grown for six days. Media was changed on the samples every 48 hours. On day 6, cells were pulsed with 1 µCi[…] for the last 6 hours of incubation before harvesting onto glass filter using a HPD cell harvester (Cambridge Technology, Watertown, Massachusetts) and counted on a KLB scintillation counter.
(§3) Initial tests were carried out to determine the optimal (maximal) dose of αAED required to inhibit growth of the ZR-75-1 cells in in vitro as determined by tritiated tymidine incorporation. […] To ensure that inhibition was not due to cytotoxicity, cell count and viability were assessed by trypan blue exclusion.
ZR-75-1 cells (2X10^3) were treated as described above over a six day period with differing concentrations of αAED or with vehicle-only cultures. The medium was changed every 48 hours. Cells were pulsed with ^3H-thymidine for the last six hours of incubation.

ZR-75-1 cells [2] = test: Cell count and viability by trypan blue exclusion; type: cell-based, human
Description: as §1, §3

P388D1 cells = test: Growth of lymphoid neoplasm cells in the presence of RU486; type: cell-based; settings: RU486 at 0.5 µM and 1.0 µM
Description: as §2
Effect of αAED on growth of lymphoid neoplasm (P388D1 cells obtained from the American Type Culture Collection) in the presence of RU486 at concentration of 0.5 µM and 1.0 µM was studied in accord with the methods described above.

RAW 264.7 = test: Proliferation of macrophage myeloma cells; type: cell-based, murine
Description: as §2
Effects of αAED at doses of 50 ηM and 100 ηM doses on murine macrophage myeloma cells (RAW 264.7, obtained from the American Type Culture Collection) was studied.

Compound	proliferation in the presence of estradiol (Example 3) (ZR-75-1 cells [1]; 1 ηM estradiol, higher doses of αAED, 6 day period)	cell proliferation (Example 1) (ZR-75-1 cells [1]; 6.25 ηM)	cell proliferation (Example 1) (ZR-75-1 cells [1]; 25 ηM)	cell proliferation (Example 1) (ZR-75-1 cells [1]; 50 ηM)	maximal dose of anti-proliferative effect (ZR-75-1 cells [1]; ZR-75-1 cells, 6 days)	growth of ZR-75-1 cells (ZR-75-1 cells [1]; concentration of 25 nM or greater)	proliferation of ZR-75-1 cells compared with the vehicle control (ZR-75-1 cells [1]; concentrations between 6.25 and 12.5 ηM (P<0.01))	effect on the growth of ZR-75-1 cells compared to vehicle control (ZR-75-1 cells [1]; doses ranging from 3.13 ηM to 50 ηM, after 6 days)	proliferation of cells in the presence of RU486 (Example 5) (ZR-75-1 cells [1]; αAED with 0.5 µM RU486)	proliferation of cells in the presence of βAED (Example 2) (ZR-75-1 cells [1]; βAED constant at 2.5 ηM, all concentrations of αAED)	antiproliferative effects in the presence of Flutamide (Example 4) (ZR-75-1 cells [1]; ≥6.25 ηM αAED, with Flutamide, 6 day period)	cytotoxicity (cell count and viability) (ZR-75-1 cells [2])	growth of lymphoid neoplasm in the presence of RU486 (Example 8) (P388D1 cells)	proliferation of murine macrophage myeloma cells (Example 9) (RAW 264.7; 50 ηM)	proliferation of murine macrophage myeloma cells (Example 9) (RAW 264.7; 100 ηM)	antiproliferative effect on the growth of the ZR-75-1 cells (ZR-75-1 cells [1]; alone at 100 ηM)
C[C@]12CC[C@H]3[C@@H](CC=C4C[C@@H](O)CC[C@@]43C)[C@@H]1CC[C@H]2O [αAED, 5-androstene 3β,17α diol]	suppressed proliferation	increasing proliferation	decreasing cell proliferation	marked decrease	100 ηM	significantly inhibited the growth	stimulated proliferation	biphasic effect	synergistic action to decrease proliferation of cells	decreased proliferation	greatly enhanced	not toxic	increased effectiveness over use of one agent	significant inhibition of proliferation	significant inhibition of proliferation	
C[C@]12CC[C@H]3[C@@H](CC=C4C[C@@H](O)CC[C@@]43C)[C@@H]1CC[C@@H]2O [βAED, 5-androstene 3β,17β diol, reference compound]																did not have any antiproliferative effect
